The results in this text go back to ChEMBL document CHEMBL3867448, “Targeted Isolation of Indolopyridoquinazoline Alkaloids from Conchocarpus fontanesianus Based on Molecular Networks” (2016).

Test [1] concerns Candida albicans. Kind of test: Antifungal activity against Candida albicans DSY2621 by MTT assay. The class given is functional. (Tetrazolium dyes change colour on reduction, which living cells bring about.)
Test [2] concerns Candida albicans. The test is described as follows: Antifungal activity against wild type Candida albicans CAF2-1 by MTT assay. The class given is functional.

Compound `CC1(C)C=Cc2c(O)nc3ccccc3c2O1` [FLINDERSINE] displayed an MIC with Candida albicans [1] of 15 µg.
Regarding `Clc1ccc(COC(Cn2ccnc2)c2ccc(Cl)cc2Cl)c(Cl)c1` (centres undefined) [MICONAZOLE], the MIC in the test on Candida albicans [2] and in the test with Candida albicans [1] was 0.0006 µg each time.
As to `COc1cccc2c3c(c(=O)[nH]c12)C=CC(C)(C)O3`, in the test on Candida albicans [1], the MIC worked out at 15 µg.
